Results published in patent US20240270821A1, “GIP/GLP1/GCG TRI-RECEPTOR AGONISTS AND USES THEREOF” (priority 2023, published 2024).
Starred links: 1 amine or outer side, 2 acyl side, 3 side chain; linkers in the order of their positions; H or OH if unused. Non-standard residues stand in square brackets, D forms with d. Residues, ends and D or L forms follow the SMILES beside them. Groups on a side chain read outwards from the residue. *: point of attachment. Phe(4-NO2) = N[C@@H](Cc1ccc([N+](=O)[O-])cc1)C(=O)O; C18 diacid = O=C(O)CCCCCCCCCCCCCCCCC(=O)*; αMePhe(2-F) = C[C@](N)(Cc1ccccc1F)C(=O)O; γGlu = O=C(O)[C@H](CCC(=O)[*:2])N[*:1]; 4Pal = N[C@@H](Cc1ccncc1)C(=O)O; αMeL = CC(C)C[C@](C)(N)C(=O)O; AEEA = NCCOCCOCC(=O)O; Aib = CC(C)(N)C(=O)O

Columns and labels:
Assay type in all cases: cell-based
hGIPR [1] = biological target: T1, hGIPR (Homo sapiens, UniProt P48546); test: Functional cAMP activity in the presence of 1% HSA; conditions: read-out: cAMP Rel EC50, hGIPR
T1 sequence (P48546 22-466): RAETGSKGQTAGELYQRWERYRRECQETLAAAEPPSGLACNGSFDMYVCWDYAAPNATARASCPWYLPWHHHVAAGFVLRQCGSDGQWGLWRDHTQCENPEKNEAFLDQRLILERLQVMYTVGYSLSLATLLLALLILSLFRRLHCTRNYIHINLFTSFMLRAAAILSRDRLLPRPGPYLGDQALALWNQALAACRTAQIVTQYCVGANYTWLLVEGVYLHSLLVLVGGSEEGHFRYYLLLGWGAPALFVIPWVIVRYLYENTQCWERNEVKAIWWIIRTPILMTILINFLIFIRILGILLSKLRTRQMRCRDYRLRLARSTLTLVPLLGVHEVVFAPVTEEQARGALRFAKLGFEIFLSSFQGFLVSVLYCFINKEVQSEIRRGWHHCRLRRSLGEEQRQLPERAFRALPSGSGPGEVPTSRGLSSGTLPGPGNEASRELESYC

hGLP-1R [2] = biological target: T2, hGLP-1R (Homo sapiens, UniProt P43220); test: Functional cAMP activity in the presence of 1% HSA; conditions: read-out: cAMP Rel EC50, hGLP-1R
T2 sequence (P43220 24-463): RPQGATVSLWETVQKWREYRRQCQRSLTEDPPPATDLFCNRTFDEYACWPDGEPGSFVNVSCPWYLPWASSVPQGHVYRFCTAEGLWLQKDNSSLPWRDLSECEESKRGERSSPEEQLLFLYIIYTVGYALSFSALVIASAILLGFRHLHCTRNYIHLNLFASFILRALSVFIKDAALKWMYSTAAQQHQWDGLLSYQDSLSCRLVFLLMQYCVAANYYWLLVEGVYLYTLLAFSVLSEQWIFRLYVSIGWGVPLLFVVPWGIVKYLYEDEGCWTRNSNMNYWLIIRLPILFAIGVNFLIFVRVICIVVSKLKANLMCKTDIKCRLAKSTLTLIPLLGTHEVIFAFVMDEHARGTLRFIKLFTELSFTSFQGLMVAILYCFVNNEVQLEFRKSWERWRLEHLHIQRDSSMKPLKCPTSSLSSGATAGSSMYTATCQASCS

human GcgR = human GcgR (Homo sapiens, UniProt P47871); test: Functional cAMP activity in the presence of 1% HSA; conditions: read-out: cAMP Rel EC50, hGcgR
Sequence of human GcgR (P47871 26-477): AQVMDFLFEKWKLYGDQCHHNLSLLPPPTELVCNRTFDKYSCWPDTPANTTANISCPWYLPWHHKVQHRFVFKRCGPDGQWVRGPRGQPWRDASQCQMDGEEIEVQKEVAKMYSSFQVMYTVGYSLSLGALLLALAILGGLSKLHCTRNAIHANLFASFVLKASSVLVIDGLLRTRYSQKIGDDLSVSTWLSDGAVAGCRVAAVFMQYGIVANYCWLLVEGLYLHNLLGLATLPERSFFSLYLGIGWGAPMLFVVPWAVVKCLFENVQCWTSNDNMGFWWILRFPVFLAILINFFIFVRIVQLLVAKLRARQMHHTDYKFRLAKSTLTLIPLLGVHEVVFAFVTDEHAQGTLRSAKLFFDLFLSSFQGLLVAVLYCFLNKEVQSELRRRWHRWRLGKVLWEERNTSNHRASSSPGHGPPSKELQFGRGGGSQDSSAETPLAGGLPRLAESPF

hGIPR [3] = biological target: T1, hGIPR; test: Functional cAMP activation in the presence of 0.1% casein (no HSA); conditions: read-out: Relative cAMP EC50, hGIPR;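 for Relative cAMP EC50, hGIPR: intracellular cAMP rise after 30 min at 37 °C read by HTRF against a standard curve, scaled between buffer alone (0%) and top control ligand concentration (100%), four-parameter fit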;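 for Relative cAMP EC50, hGLP-1R: intracellular cAMP rise after 30 min at 37 °C read by HTRF, normalized between buffer only (0%) and maximal control ligand (100%), four-parameter variable-slope fit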;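 for Relative cAMP EC50, hGcgR: intracellular cAMP rise after 30 min at 37 °C, read by HTRF against a cAMP standard curve, scaled from buffer only (0%) to maximal control ligand response (100%)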
hGLP-1R [4] = biological target: T2, hGLP-1R; test: as above; conditions: read-out: Relative cAMP EC50, hGLP-1R
hGcgR = hGcgR (Homo sapiens, UniProt P47871); test: as above; conditions: read-out: Relative cAMP EC50, hGcgR;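 note: intracellular cAMP rise after 30 min at 37 °C, read by HTRF against a cAMP standard curve, scaled from buffer only (0%) to maximal control ligand response (100%)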
Sequence of hGcgR (P47871 26-477): as above

Structure (SMILES) | EC50 (hGIPR [1]) [nM] | EC50 (hGLP-1R [2]) [nM] | EC50 (human GcgR) [nM] | EC50 (hGIPR [3]) [nM] | EC50 (hGLP-1R [4]) [nM] | EC50 (hGcgR) [nM]
CC[C@H](C)[C@H](NC(=O)[C@H](Cc1ccccc1)NC(=O)[C@H](C)NC(=O)C(C)(C)NC(=O)[C@H](CCC(N)=O)NC(=O)[C@H](C)NC(=O)[C@H](CCCCNC(=O)COCCOCCNC(=O)CC[C@H](NC(=O)CCCCCCCCCCCCCCCCC(=O)O)C(=O)O)NC(=O)[C@H](CCCCN)NC(=O)[C@H](CC(=O)O)NC(=O)[C@H](CC(C)C)NC(=O)[C@](C)(CC(C)C)NC(=O)[C@@H](NC(=O)[C@H](CO)NC(=O)[C@H](Cc1ccc([N+](=O)[O-])cc1)NC(=O)[C@H](CC(=O)O)NC(=O)[C@H](CO)NC(=O)[C@@H](NC(=O)[C@](C)(Cc1ccccc1F)NC(=O)[C@@H](NC(=O)CNC(=O)[C@H](CCC(N)=O)NC(=O)C(C)(C)NC(=O)[C@@H](N)Cc1ccc(O)cc1)[C@@H](C)O)[C@@H](C)O)[C@@H](C)CC)C(=O)N[C@@H](CCC(=O)O)C(=O)N[C@@H](Cc1ccc(O)cc1)C(=O)N[C@@H](CC(C)C)C(=O)N[C@@H](CCC(=O)O)C(=O)N[C@@H](CCC(=O)O)C(=O)NCC(=O)NCC(=O)N1CCC[C@H]1C(=O)N[C@@H](CO)C(=O)N[C@@H](CO)C(=O)NCC(=O)N[C@@H](C)C(=O)N1CCC[C@H]1C(=O)N1CCC[C@H]1C(=O)N1CCC[C@H]1C(=O)N[C@@H](CCC(=O)O)C(N)=O [Example 495] (H-Y[Aib]QGT[αMePhe(2-F)]TSD[Phe(4-NO2)]SI[αMeL]LDKK([AEEA-γGlu-C18 diacid])AQ[Aib]AFIEYLEEGGPSSGAPPPE-NH2) | 5.74 | 53.8 | 205 | 0.0361 | 0.274 | 1.75
CC[C@H](C)[C@H](NC(=O)[C@H](Cc1ccccc1)NC(=O)[C@H](CCCN)NC(=O)C(C)(C)NC(=O)[C@H](CCC(N)=O)NC(=O)[C@H](C)NC(=O)[C@H](CCCCNC(=O)[C@H](CCC(=O)O)NC(=O)CC[C@H](NC(=O)CCCCCCCCCCCCCCCCC(=O)O)C(=O)O)NC(=O)[C@H](CCCN)NC(=O)[C@H](CC(=O)O)NC(=O)[C@H](CC(C)C)NC(=O)[C@](C)(CC(C)C)NC(=O)[C@@H](NC(=O)[C@](C)(CO)NC(=O)[C@H](Cc1ccncc1)NC(=O)[C@H](CC(=O)O)NC(=O)[C@H](CO)NC(=O)[C@@H](NC(=O)[C@](C)(Cc1ccccc1F)NC(=O)[C@@H](NC(=O)CNC(=O)[C@H](CCC(N)=O)NC(=O)C(C)(C)NC(=O)[C@@H](N)Cc1ccc(O)cc1)[C@@H](C)O)[C@@H](C)O)[C@@H](C)CC)C(=O)N[C@H](CCC(=O)O)C(=O)N[C@@](C)(Cc1ccc(O)cc1)C(=O)N[C@@H](CC(C)C)C(=O)N[C@@H](CCC(N)=O)C(=O)N[C@@H](CCC(=O)O)C(=O)NCC(=O)NCC(=O)N1CCC[C@H]1C(=O)N[C@@H](CO)C(=O)N[C@@H](CO)C(=O)NCC(=O)N[C@@H](CCC(=O)O)C(=O)N1CCC[C@H]1C(=O)N1CCC[C@H]1C(=O)N1CCC[C@H]1C(=O)N[C@@H](CCC(=O)O)C(=O)NCC(=O)N[C@H](C(=O)N[C@@H](CCC(=O)O)C(=O)N[C@@H](CCC(=O)O)C(=O)N[C@@H](CCC(=O)O)C(N)=O)[C@@H](C)O [Example 594] | 3.32 | 49.1 | 570 | 0.0541 | 0.561 | 8.35

The next compounds have a lower EC50 (hGIPR [1]) than those just listed; values first:

EC50 (hGIPR [1]) [nM] | EC50 (hGLP-1R [2]) [nM] | EC50 (human GcgR) [nM] | EC50 (hGIPR [3]) [nM] | EC50 (hGLP-1R [4]) [nM] | EC50 (hGcgR) [nM] | Structure (SMILES)
2.26 | 27.7 | 477 | 0.0286 | 0.639 | 5.36 | CC[C@H](C)[C@H](NC(=O)[C@H](Cc1ccccc1)NC(=O)[C@H](C)NC(=O)C(C)(C)NC(=O)[C@H](CCC(N)=O)NC(=O)[C@H](C)NC(=O)[C@H](CCCCNC(=O)COCCOCCNC(=O)CC[C@H](NC(=O)CCCCCCCCCCCCCCCCC(=O)O)C(=O)O)NC(=O)[C@H](CCCCN)NC(=O)[C@H](CC(=O)O)NC(=O)[C@H](CC(C)C)NC(=O)[C@](C)(CC(C)C)NC(=O)[C@@H](NC(=O)[C@H](CO)NC(=O)[C@H](Cc1ccncc1)NC(=O)[C@H](CC(=O)O)NC(=O)[C@H](CO)NC(=O)[C@@H](NC(=O)[C@](C)(Cc1ccccc1F)NC(=O)[C@@H](NC(=O)CNC(=O)[C@H](CCC(N)=O)NC(=O)C(C)(C)NC(=O)[C@@H](N)Cc1ccc(O)cc1)[C@@H](C)O)[C@@H](C)O)[C@@H](C)CC)C(=O)N[C@@H](CCC(=O)O)C(=O)N[C@@H](Cc1ccc(O)cc1)C(=O)N[C@@H](CC(C)C)C(=O)N[C@@H](CCC(=O)O)C(=O)N[C@@H](CCC(=O)O)C(=O)NCC(=O)NCC(=O)N1CCC[C@H]1C(=O)N[C@@H](CO)C(=O)N[C@@H](CO)C(=O)NCC(=O)N[C@@H](CCC(=O)O)C(=O)N1CCC[C@H]1C(=O)N1CCC[C@H]1C(=O)N1CCC[C@H]1C(=O)N[C@@H](CCC(=O)O)C(N)=O [Example 487] (H-Y[Aib]QGT[αMePhe(2-F)]TSD[4Pal]SI[αMeL]LDKK([AEEA-γGlu-C18 diacid])AQ[Aib]AFIEYLEEGGPSSGEPPPE-NH2)
2.71 | 35.3 | 591 | 0.0484 | 0.495 | 6.57 | CC[C@H](C)[C@H](NC(=O)[C@H](Cc1ccccc1)NC(=O)[C@H](CCCN)NC(=O)C(C)(C)NC(=O)[C@H](CCC(N)=O)NC(=O)[C@H](C)NC(=O)[C@H](CCCCNC(=O)[C@H](CCC(=O)O)NC(=O)CC[C@H](NC(=O)CCCCCCCCCCCCCCCCC(=O)O)C(=O)O)NC(=O)[C@H](CCCN)NC(=O)[C@H](CC(=O)O)NC(=O)[C@H](CC(C)C)NC(=O)[C@](C)(CC(C)C)NC(=O)[C@@H](NC(=O)[C@](C)(CO)NC(=O)[C@H](Cc1ccncc1)NC(=O)[C@H](CC(=O)O)NC(=O)[C@H](CO)NC(=O)[C@@H](NC(=O)[C@](C)(Cc1ccccc1F)NC(=O)[C@@H](NC(=O)CNC(=O)[C@H](CCC(N)=O)NC(=O)C(C)(C)NC(=O)[C@@H](N)Cc1ccc(O)cc1)[C@@H](C)O)[C@@H](C)O)[C@@H](C)CC)C(=O)N[C@H](CCC(=O)O)C(=O)N[C@@](C)(Cc1ccc(O)cc1)C(=O)N[C@@H](CC(C)C)C(=O)N[C@@H](CCC(N)=O)C(=O)N[C@@H](CCC(=O)O)C(=O)NCC(=O)NCC(=O)N1CCC[C@H]1C(=O)N[C@@H](CO)C(=O)N[C@@H](CO)C(=O)NCC(=O)N[C@@H](CCC(=O)O)C(=O)N1CCC[C@H]1C(=O)N1CCC[C@H]1C(=O)N1CCC[C@H]1C(=O)N[C@@H](CCC(=O)O)C(=O)NCC(=O)N[C@H](C(=O)N[C@@H](CCC(=O)O)C(=O)N[C@@H](CCC(=O)O)C(N)=O)[C@@H](C)O [Example 593]
1.98 | 36.6 | 385 | 0.0455 | 0.592 | 5.71 | CC[C@H](C)[C@H](NC(=O)[C@H](Cc1ccccc1)NC(=O)[C@H](CCCN)NC(=O)C(C)(C)NC(=O)[C@H](CCC(N)=O)NC(=O)[C@H](C)NC(=O)[C@H](CCCCNC(=O)[C@@H](CCC(=O)O)NC(=O)CC[C@H](NC(=O)CCCCCCCCCCCCCCCCC(=O)O)C(=O)O)NC(=O)[C@H](CCCN)NC(=O)[C@H](CC(=O)O)NC(=O)[C@H](CC(C)C)NC(=O)[C@](C)(CC(C)C)NC(=O)[C@@H](NC(=O)[C@](C)(CO)NC(=O)[C@H](Cc1ccncc1)NC(=O)[C@H](CC(=O)O)NC(=O)[C@H](CO)NC(=O)[C@@H](NC(=O)[C@](C)(Cc1ccccc1F)NC(=O)[C@@H](NC(=O)CNC(=O)[C@H](CCC(N)=O)NC(=O)C(C)(C)NC(=O)[C@@H](N)Cc1ccc(O)cc1)[C@@H](C)O)[C@@H](C)O)[C@@H](C)CC)C(=O)N[C@H](CCC(=O)O)C(=O)N[C@@](C)(Cc1ccc(O)cc1)C(=O)N[C@@H](CC(C)C)C(=O)N[C@@H](CCC(N)=O)C(=O)N[C@@H](CCC(=O)O)C(=O)NCC(=O)NCC(=O)N1CCC[C@H]1C(=O)N[C@@H](CO)C(=O)N[C@@H](CO)C(=O)NCC(=O)N[C@@H](CCC(=O)O)C(=O)N1CCC[C@H]1C(=O)N1CCC[C@H]1C(=O)N1CCC[C@H]1C(=O)N[C@@H](CCC(=O)O)C(=O)NCC(=O)N[C@H](C(=O)N[C@@H](CCC(=O)O)C(=O)N[C@@H](CCC(=O)O)C(=O)N[C@@H](CCC(=O)O)C(N)=O)[C@@H](C)O [Example 596]
